# Assay results published in patent US20120201902A1, “ANTIMICROBIAL/PRESERVATIVE COMPOSITIONS COMPRISING BOTANICALS” (The Trustees of Columbia University in the City of New York, priority 2009, published 2012).
# Legend:
# S. aureus [1] = assay: In vitro rapid (15 seconds) antibacterial activity (Method A), S. aureus; type: cell-based
# Procedure: Method A: 0.8 ml of a test solution was mixed with 0.1 ml of bacterial culture (10^8 cfu/ml) and 0.1 ml of bovine serum and vortexed for 15 seconds. 9 ml of drug neutralizing Fluid (DNF) was then added and serially diluted with DNF and plated on trypticase soy agar (TSA) plates. The plates were incubated for 24-48 hours at 37° C., and colony counts were determined. For a control, a gel base was used alone. The gel base (Base 26) contains 0.2% hydroxymethylpropyl cellulose and 0.2% polyquaternium10, and 0.5% 1,3 propanediol in water.
# The present example evaluates rapid (15 seconds) antibacterial activity of various agents, alone and in combination, in an aqueous gel base (Base 26) using S. aureus as the test organism. One method of testing (Method A) uses 0.8 ml of the test solution mixed with 0.1 ml of bacterial culture (10^8 cfu/ml) and 0.1 ml of Bovine serum. The solution is vortexed for 15 seconds. 9.0 ml of drug neutralizing Fluid (DNF) is then added and then serially diluted with DNF and plated on TSA plates. Plates are incubated for 24-48 hours at 37° C. and colony counts were determined. For A control, the base was used alone.
# Aspergillus niger = assay: Preservative efficacy in cream (Method 1), Aspergillus niger; type: cell-based; settings: for efficacy of solvent added to GSE, lemongrass oil and lactic acid: against A. niger
# C. albicans [2] = assay: Preservative efficacy in cream (Method 1), C. albicans; type: cell-based, Candida albicans; settings: for Efficacy (log10 reduction from control growth) C. albicans: Table 67
# S. aureus [3] = assay: Synergistic antibacterial activity of benzyl alcohol and citrus fruit extract in proteinaceous media (1 minute); type: cell-based; settings: 2.0 % w/w, media 50% TSB and 50% bovine serum
# Procedure: Citrus fruit extract was obtained from PL Thomas (BiosecurF440D organic citrus fruit extract concentrate). The following concentrations of compounds were added to S. aureus culture (10^8 cfu/ml of media containing 50% TSB and 50% bovine serum). After 1 minute, drug neutralizing fluid (DNF) was added and mixed. The samples were then serially diluted with DNF and plated in TSA plate. The plates were incubated for 24-48 hours at 37° C. and colony counts were determined.
# S. aureus [4] = settings: erythromycin, gentamicin, vancomycin, ciproflaxin, clindamycin, tetracycline; cited from earlier work
# C. albicans [5] = assay: Efficacy of antifungal creams in pig skin method (Method D), loosely and tightly adhered organism; type: cell-based, Candida albicans; settings: conclusion of Example 31 (Methods C, D, E)
# Procedure: Method D: Evaluation of efficacy in pig skin method (test organism C. albicans). […] At the end of incubation, DNF (drug neutralizing fluid) was added to each piece, mixed to remove the cream and loosely adhered bacteria on the skin. Loosely adhered organism: The fluid containing the cream was removed, serially diluted with DNF and aliquots plated on TSA and incubated for 24-48 hours and colonies were counted. Tightly adhered organism: DNF was added to the rinsed pigskin and sonicated for 20 minutes to remove the tightly adhered bacteria. The fluid after sonication was serially diluted, plated on TSA and, incubate for 24-48 hours and colony counts were determined.
# S. aureus [6] = assay: In vitro rapid (15 seconds) efficacy of hand disinfectant soap (Method A with 10^9 organism); type: cell-based
# Description: The method of testing is same method as described above as Method A, however using 10^9 organism instead 10^8.
# S. aureus [7] = assay: In vitro rapid (15 second) efficacy of surface disinfectants; type: cell-based; settings: surfactant base
# Procedure: The following ingredients were added in a surfactant base containing water and alkyl polyglycoside surfactant (Glucopon) (Table 125).
# Table 126 provides the dadta for an in vitro rapid (15 second) antibacterial efficacy of surface disinfectants against S. aureus.
# The following ingredients were added in a surfactant base containing water and alkyl polyglycoside surfactant (Glucopon) (Table 127).
# Table 128 provides the results from an in vitro rapid (15 second) antibacterial efficacy of surface disinfectants against S. aureus.
# [8] = cited from earlier work
# [9] = Table 106, 3.0 % w/w in Base 26, 15 seconds
# [10] = Table 106, 0.5 % w/w in Base 26, 15 seconds
# [11] = Table 106, 2.0 % w/w in Base 26, 15 seconds
# [12] = Table 107, 2.0 % w/w, 15 seconds
# [13] = Table 106, 0.2 % w/w in Base 26, 15 seconds
compound,measurement,setting,value
"OCCCO [1,3 propanediol]",log10 reduction,S. aureus [1]; [9],0.2 log10
same,"synergistic efficacy of benzyl alcohol and GSE, with and without 1,3 propanediol","Aspergillus niger; 1-2% preservative in hydrophilic cream base, pH 4.5-5.0, tested against Aspergillus niger and C. albicans",enhances the activity
"OCc1ccccc1 [Benzyl alcohol, benzyl alcohol]",log10 reduction,S. aureus [1]; [10],0.13 log10
same,log10 reduction,"S. aureus [1]; Table 106, 1.0 % w/w in Base 26, 15 seconds",0.14 log10
same,log10 reduction,S. aureus [1]; [11],0.18 log10
same,log10 reduction,S. aureus [1]; [9],0.2 log10
same,log10 reduction,S. aureus [1]; [12],0.12 log10
same,synergistic activity with citric and lactic acid,"S. aureus [1]; benzyl alcohol at 1% and more than 1%, Base 26, 15 seconds",synergistic activity
same,activity along with fruit acid without any botanical extracts,"S. aureus [1]; benzyl alcohol at higher concentrations, 15 seconds",effective
same,"synergistic activity with the combination of GSE, lemongrass oil, and lactic acid","Aspergillus niger; Example 5, organism not given",synergistic activity
same,Efficacy (log10 reduction from control growth) A. niger,"Aspergillus niger; Table 67, 0.5 % w/w in cream",1.0 log10
same,Efficacy (log10 reduction from control growth) A. niger,"Aspergillus niger; Table 67, 1.0 % w/w in cream",1.9 log10
same,"efficacy of solvent added to GSE, lemongrass oil and lactic acid",Aspergillus niger,higher efficacy
same,Efficacy (log10 reduction from control growth) C. albicans,C. albicans [2]; 0.5 % w/w in cream,1.0 log10
same,Efficacy (log10 reduction from control growth) C. albicans,C. albicans [2]; 1.0 % w/w in cream,2.7 log10
same,"efficacy of solvent added to GSE, lemongrass oil and lactic acid",C. albicans [2]; against C. albicans,higher efficacy
same,synergistic activity with Zemea,"C. albicans [2]; higher concentrations of benzyl alcohol, against C. albicans",synergistic activity
same,Antibacterial activity against S. Aureus (10^8 CFU/ml) log10 reduction,S. aureus [3],0.1 log10
N=C(NCCCCCCNC(=N)NC(=N)Nc1ccc(Cl)cc1)NC(=N)Nc1ccc(Cl)cc1.O=C(O)[C@H](O)[C@@H](O)[C@H](O)[C@H](O)CO.O=C(O)[C@H](O)[C@@H](O)[C@H](O)[C@H](O)CO [Chlorhexidine gluconate],log10 reduction,S. aureus [1]; [10],2.4 log10
N=C(NCCCCCCNC(=N)NC(=N)Nc1ccc(Cl)cc1)NC(=N)Nc1ccc(Cl)cc1.O=C(O)[C@H](O)[C@@H](O)[C@H](O)[C@H](O)CO.O=C(O)[C@H](O)[C@@H](O)[C@H](O)[C@H](O)CO [Chlorhexidine gluconte],log10 reduction,S. aureus [1]; [13],1.43 log10
O=C(O)CC(O)(CC(=O)O)C(=O)O [Citric acid],log10 reduction,S. aureus [1]; [13],0.1 log10
OCc1ccccc1 [Preservative 2],Efficacy (log10 reduction from control growth) A. niger,"Aspergillus niger; Table 59, preservative in hydrophilic cream base, pH 4.5-5.0, benzyl alcohol (natural), GSE, Zemea, control growth 1 × 10^4-5 × 10^4",0.98 log10
"CCCCC(CC)COCC(O)CO (centres unmarked) [Sensiva, Octoxyglycerin]","efficacy of solvent added to GSE, lemongrass oil and lactic acid",Aspergillus niger,not against A. niger
same,"efficacy of solvent added to GSE, lemongrass oil and lactic acid",C. albicans [2]; against C. albicans,effective against C. albicans
OCCCO [Zemea ®],Efficacy (log10 reduction from control growth) A. niger,"Aspergillus niger; Table 67, 0.5 % w/w in cream",0.85 log10
same,Efficacy (log10 reduction from control growth) C. albicans,C. albicans [2]; 0.5 % w/w in cream,0.5 log10
CC(C)=CCC/C(C)=C/CC1CCCC1=O (centres unmarked) [apritone],susceptibility of S. aureus to antibiotics,S. aureus [4],enhanced the susceptibility
O=C1O[C@H]([C@@H](O)CO)C(O)=C1O [ascorbic acid],synergistic activity of organic acids with benzyl alcohol,S. aureus [1],not effective
same,log10 reduction,S. aureus [1]; [12],0.1 log10
O=C(O)c1ccccc1 [benzoic acid],synergistic activity of organic acids with benzyl alcohol,S. aureus [1],synergistic activity
same,log10 reduction,S. aureus [1]; [12],0.1 log10
CC(C)=CCC[C@](C)(O)C1CC=C(C)CC1 (some centres unmarked) [bisabolol],susceptibility of S. aureus to antibiotics,S. aureus [4],enhanced the susceptibility
"[H]/N=C(\N/C(=N/[H])NCCCCCCNC(=N)NC(=N)Nc1ccc(Cl)cc1)Nc1ccc(Cl)cc1 [chlorhexidine, reference compound]",synergistic activity with benzyl alcohol and fruit acids,"S. aureus [1]; Base 26, 15 seconds",synergistic activity
CC(C)=CCCC(C)=CCCC(C)=CCO [farnesol],susceptibility of S. aureus to antibiotics,S. aureus [4],enhanced the susceptibility
CC(O)C(=O)O (centres unmarked) [lactic acid],synergistic activity of organic acids with benzyl alcohol,S. aureus [1],synergistic activity
same,log10 reduction,S. aureus [1]; [13],0.1 log10
same,log10 reduction,S. aureus [1]; [11],0.11 log10
same,log10 reduction,S. aureus [1]; [12],0.11 log10
Clc1ccc(COC(Cn2ccnc2)c2ccc(Cl)cc2Cl)c(Cl)c1 (centres unmarked) [miconazole],"antifungal activity with synergistic combination of benzyl alcohol, fruit acid, biguanide and benzalkonium chloride",C. albicans [5],significantly enhanced
C=CC(C)(O)CCC=C(C)CCC=C(C)C (centres unmarked) [nerolidol],susceptibility of S. aureus to antibiotics,S. aureus [4],enhanced the susceptibility
Oc1cc(Cl)ccc1Oc1ccc(Cl)cc1Cl [triclosan],"synergistic action with BPC (benzyl alcohol, propanediol, citric acid)",S. aureus [6],synergistic action
(polyiminoimidocarbonyliminoimidocarbonyl-iminohexamethylene)hydro-chloride [Vantocil],synergistic activity with benzyl alcohol and fruit acids,S. aureus [7],synergistic activity
same,synergistic activity with benzyl alcohol and lactic acid,S. aureus [7],synergistic activity
benzalkonium chloride [reference compound],"synergistic action with BPC (benzyl alcohol, propanediol, citric acid)",S. aureus [6],synergistic action
same,synergistic activity with benzyl alcohol and fruit acids,"S. aureus [1]; Base 26, 15 seconds",synergistic activity
same,log10 reduction,"S. aureus [1]; Table 106, 0.1 % w/w in Base 26, 15 seconds",2.7 log10
zinc picolinate,water solubility (in words),[8],moderately water soluble
